Several values for one entry are separate records, joined by “and”; a condition that tells them apart may be missing. Equal values may be shown once.
Columns and labels:
Format in all cases: toxicity, cell-based
Fibroblast = experiment: Incucyte cell viability with human fibroblast; conditions: 10 µM, compound concentration 10 uM
U2OS = experiment: Incucyte cell viability with U2OS; conditions: human, 10 µM, compound concentration 10 uM
HEK-293T = experiment: Incucyte cell viability with HEK293T; conditions: human, 10 µM, compound concentration 10 uM
Further: unitless GR value; below 1 slowed growth and below 0 cell loss.

Compound	Growth Rate (Fibroblast; 0 h, replicate number 2)	Growth Rate (Fibroblast; 6 h, replicate number 1)	Growth Rate (Fibroblast; 12 h, replicate number 1)	Growth Rate (U2OS; 6 h, replicate number 1)	Growth Rate (U2OS; 6 h, replicate number 2)	Growth Rate (U2OS; 12 h, replicate number 2)	Growth Rate (HEK-293T; 24 h, replicate number 1)	Growth Rate (Fibroblast; 18 h, replicate number 2)	Growth Rate (Fibroblast; 24 h, replicate number 1)	Growth Rate (U2OS; 12 h, replicate number 1)	Growth Rate (U2OS; 18 h, replicate number 1)	Growth Rate (U2OS; 24 h, replicate number 1)	Growth Rate (U2OS; 24 h, replicate number 2)	Growth Rate (HEK-293T; 6 h, replicate number 1)	Growth Rate (HEK-293T; 12 h, replicate number 1)	Growth Rate (HEK-293T; 12 h, replicate number 2)	Growth Rate (HEK-293T; 18 h, replicate number 1)	Growth Rate (HEK-293T; 18 h, replicate number 2)	Growth Rate (HEK-293T; 24 h, replicate number 2)	Growth Rate (HEK-293T; 6 h, replicate number 2)	other results
CS(=O)(=O)NCC[C@H](NC(=O)c1cncc2c1cnn2-c1ccc(F)cc1)c1ccnc(S(C)(=O)=O)c1 [BI 9307]	-0.94	0.89	0.91	0.83	0.9	0.91	1														Growth Rate (Fibroblast; 0 h, replicate number 1): -0.98; Growth Rate (HEK-293T; 0 h, replicate number 1): -0.12; Growth Rate (HEK-293T; 0 h, replicate number 2): 0.23
C[C@@]1(Cc2ccc(C#N)cc2)C(=O)N(c2cc(Cl)cc(Cl)c2)c2ncc(C(=O)NC3(c4nc(C5CCC5)no4)CC3)n21 [BI 9446]	-0.17	0.23	0.61	0.76	1	0.61	0.21	0.52	0.4	0.77	0.83	0.67	0.94	0.51	0.15	0.74	0.2	0.52	0.48		Growth Rate (Fibroblast; 0 h, replicate number 1): -1; Growth Rate (Fibroblast; 6 h, replicate number 2): -0.58; Growth Rate (Fibroblast; 12 h, replicate number 2): 0.12; Growth Rate (Fibroblast; 18 h, replicate number 1): 0.41; Growth Rate (Fibroblast; 24 h, replicate number 2): 0.41; Growth Rate (U2OS; 0 h, replicate number 2): 0.34; Growth Rate (U2OS; 18 h, replicate number 2): 0.75; Growth Rate (HEK-293T; 0 h, replicate number 1): 0.53
CC(=O)N1CCC(c2ccc(C(=O)NC(=N)N)cc2C(F)(F)F)CC1 [BI 9627]				0.3		0.96		0.95	0.8	0.75	0.9	1	0.92			0.65		0.77	0.92	0.69	Growth Rate (Fibroblast; 12 h, replicate number 2): 0.57; Growth Rate (Fibroblast; 24 h, replicate number 2): 0.76; Growth Rate (U2OS; 0 h, replicate number 1): 0.01; Growth Rate (U2OS; 0 h, replicate number 2): 0.44; Growth Rate (HEK-293T; 0 h, replicate number 1): 0.72
CCC(=O)N[C@H]1CC[C@@H](C(=O)N(C)c2ccc(-c3nc4ccccc4o3)cc2)C1 [BI 99179]	-0.49	0.53	0.5	0.68		0.65	0.51	0.98	0.79	0.89	0.98	0.86	0.96	0.1	0.1	0.26	0.31	0.51	0.69	0.11	Growth Rate (Fibroblast; 6 h, replicate number 2): 0.58; Growth Rate (Fibroblast; 18 h, replicate number 1): 0.66; Growth Rate (U2OS; 0 h, replicate number 1): 0.2; Growth Rate (U2OS; 18 h, replicate number 2): 0.87
CCC(=O)N[C@@H]1CC[C@H](C(=O)N(C)c2ccc(-c3nc4ccccc4o3)cc2)C1 [BI 99990]				0.62	0.78	0.64	0.82		0.79	0.58		0.96		-0.34	0.47	0.49	0.8	0.66	0.8	0.12	Growth Rate (Fibroblast; 24 h, replicate number 2): 0.81
CS(=O)(=O)c1cc(C2(NC(=O)c3cncc4c3cnn4-c3ccc(F)cc3)CC2)ccn1 [BI 639667]	-0.75			0.64		0.76	1							0.52	0.77		0.9				Growth Rate (Fibroblast; 12 h, replicate number 2): 0.97; Growth Rate (HEK-293T; 0 h, replicate number 2): -0.17
CN(C)C(=O)Cn1cc(-c2nc([C@@](C)(c3ccc(-c4cnc(N)nc4)cc3)C3CC3)no2)cn1 [BI 665915]	-0.12	0.2	0.51	0.55	0.71	0.87	0.96	0.97	0.6	0.68		0.95	0.88	0.47			0.93	0.9			Growth Rate (Fibroblast; 0 h, replicate number 1): -1; Growth Rate (Fibroblast; 18 h, replicate number 1): 0.71; Growth Rate (U2OS; 0 h, replicate number 2): 0.28; Growth Rate (U2OS; 18 h, replicate number 2): 0.99; Growth Rate (HEK-293T; 0 h, replicate number 1): 0.53
CC[C@H](CC(=O)O)n1c(=O)c2ncccc2n(Cc2cn(C)c3cc(C)cc(C)c23)c1=O [BI-1942]	0	0.14	0.83 and 0.8	0.25 and 0.31	0.74	0.71 and 0.98		0.58	0.7 and 1	0.47 and 0.65	0.61 and 0.75	0.67 and 0.73	0.61			0.58	0.94	0.52	0.65	0.45	Growth Rate (Fibroblast; 6 h, replicate number 2): 0.23 and 0.17; Growth Rate (Fibroblast; 12 h, replicate number 2): 0.64 and 0.67; Growth Rate (Fibroblast; 18 h, replicate number 1): 0.75 and 0.86; Growth Rate (Fibroblast; 24 h, replicate number 2): 0.86 and 0.92; Growth Rate (U2OS; 0 h, replicate number 1): 0.47 and 0.69; Growth Rate (U2OS; 0 h, replicate number 2): 0.8; Growth Rate (U2OS; 18 h, replicate number 2): 0.84; Growth Rate (HEK-293T; 0 h, replicate number 1): 0.52; Growth Rate (HEK-293T; 0 h, replicate number 2): -0.53
CC[C@@H]1C(=O)N(C)c2cnc(Nc3ccc(C(=O)NC4CCN(C)CC4)cc3OC)nc2N1C1CCCC1 [BI-2536]	-0.99					0.59	-0.17	0.83	0.41	0.69	0.34	0.08	0.3	0.45	-0.09	0.08	-0.18		-0.18	0.73	Growth Rate (Fibroblast; 18 h, replicate number 1): 0.76; Growth Rate (Fibroblast; 24 h, replicate number 2): 0.46; Growth Rate (U2OS; 0 h, replicate number 2): 0.33; Growth Rate (U2OS; 18 h, replicate number 2): 0.42
CN(C)C(=O)c1sc2nc(N3CCC(S(C)(=O)=O)CC3)cc(C(F)(F)F)c2c1N [BI-5026]	-0.94			0.38 and 0.65			0.97 and 0.77			0.88 and 0.68	0.84	0.88 and 0.97		0.88 and 0.51	0.83 and 0.56	0.99	0.86 and 0.6	0.85	0.98	0.65	Growth Rate (Fibroblast; 0 h, replicate number 1): -1; Growth Rate (HEK-293T; 0 h, replicate number 2): 0.24

Source: ChEMBL document CHEMBL5303304, “EUbOPEN Chemogenomics Library - IncuCyte” (2023)
